A short description of this series: Estimation of plasma levels after ip application (UHPLC-MS/MS). It is filed as in vivo, mice. The settings on record: mouse plasma. Here is the method:
At each time point, mice were euthanized and blood samples (500–800 μL) were collected and compiled into ethylenediaminetetraacetic acid (EDTA)-coated microtubes (1.6 mg of EDTA/sample) and centrifuged at 12 000 rpm for 5 min at 4 °C. Plasma samples were transferred into 1.5 mL tubes and stored at −80 °C until analysis.
Plasma calibrators were prepared by spiking corresponding stock solutions into a blank plasma sample.
Samples were vortexed at 1400 rpm for 10 min and then centrifuged at 13200g for 20 min at 10 °C. The supernatant was transferred into a 96-deep-well plate for drying under nitrogen gas flow (Evaporex EVX-96, Apricot Designs, Monrovia, CA) and redissolved in 200 μL of injection solvent (65% 10 mM ammonium formate + 0.05% formic acid, 35% acetonitrile + 0.05% formic acid) before MS/MS analysis.
Separation was performed at 55 °C on a Kinetex XB-C18 column, 100 × 2.1 mm, 1.7 μm particle size (Phenomenex; Torrance, CA); mobile phase of (A) 0.05% formic acid in 10 mM ammonium formate and (B) 0.05% formic acid in ACN, gradient 40% B for 1 min, linear gradient to reach 88% B after 5.3 min, shifted to 100% B for 1 min, and back to equilibrium condition of 40% B for 0.7 min; flow rate of 0.5 mL/min; total run time of 7 min. Sample injected volume was 1 μL and autosampler was set at 10 °C. Needle wash solution was MeOH/ACN/IPA/H2O (1:1:1:1 v/v/v/v). Flexible cube was set at a flow rate of 1 mL/min for 20 s.

The values that follow come from PMC4106271 (Journal of Medicinal Chemistry, 2014).

The structures appear in SMILES notation.

Turning to `CCCN(CCC)C(=O)/C=C/C=C/c1ccc2c(c1)OCO2` [Compound 23, (2E,4E)-5-(1,3-benzodioxol-5-yl)-N,N-dipropyl-2,4-pentadienamide], the “mean plasma concn” value is, setting by setting: (1 mg/kg body weight ip) 60.6 ± 14.5 ng/mL; (3 mg/kg body weight ip) 194.0 ± 50.2 ng/mL; (10 mg/kg body weight ip) 593.0 ± 92.4 ng/mL.
